Among the data in patent EP3800188A1, “SUBSTITUTED PYRAZOLOPYRIMIDINES AS IRAK4 INHIBITORS” (Bayer AG, priority 2019, dated 2021) are IC50 values, retold here.

The target in the experiment is T1, human IRAK4 (Homo sapiens, UniProt Q9NWZ3).
T1 construct: GST (N); made in house; host or cells: baculovirus-infected Hi5 (BTI-TN-5B1-4) insect cells
T1 sequence (Q9NWZ3 1-460): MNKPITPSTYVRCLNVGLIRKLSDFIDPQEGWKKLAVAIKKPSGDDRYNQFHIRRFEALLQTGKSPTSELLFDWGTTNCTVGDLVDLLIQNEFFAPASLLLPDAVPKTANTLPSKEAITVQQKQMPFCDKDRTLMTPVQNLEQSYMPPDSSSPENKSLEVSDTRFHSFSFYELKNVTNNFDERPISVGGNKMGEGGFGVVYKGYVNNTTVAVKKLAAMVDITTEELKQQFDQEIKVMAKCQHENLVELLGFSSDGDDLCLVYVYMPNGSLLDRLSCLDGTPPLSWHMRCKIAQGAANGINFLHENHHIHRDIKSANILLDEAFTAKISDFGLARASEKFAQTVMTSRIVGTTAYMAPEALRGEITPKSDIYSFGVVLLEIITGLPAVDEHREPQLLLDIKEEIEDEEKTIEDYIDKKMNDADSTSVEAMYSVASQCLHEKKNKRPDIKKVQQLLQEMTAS
As to the kind of experiment: Human IRAK4 kinase activity inhibition assay (IRAK4 TR-FRET assay). Format: biochemical. The conditions noted are these: 1 mM ATP, GST-human IRAK4, average or median values. The procedure, abridged: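 GST-IRAK4 from insect cells (about 0.2 nM, linear range) was preincubated 15 min with compound (11 concentrations, 20 µM–0.073 nM) in HEPES pH 7.5 with MgCl2 and DTT before kinase reaction on a biotinylated peptide. Phosphopeptide was detected by TR-FRET (Eu anti-mouse-IgG/anti-phosphoserine/streptavidin-XL665, 1 h at 22°C) as the 665/620 nm ratio, normalized to no-compound and no-enzyme controls.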
(In general: TR-FRET usually uses a lanthanide donor and a delayed reading to cut background.)
`CS(=O)(=O)C1CN(c2nc(N[C@H]3C[C@](C)(N)C3)nc3c2cnn3-c2cccc(C(F)(F)F)c2)C1` [Example I-71, trans-1-methyl-N^3-{4-[3-(methylsulfonyl)azetidin-1-yl]-1-[3-(trifluoromethyl)phenyl]-1H-pyrazolo[3,4-d]pyrimidin-6-yl}cyclobutane-1,3-diamine] registered an IC50 of 15.3 nM.
For `CC1(O)CCN(C2CN(c3nc(NC4CCS(=O)(=O)CC4)nc4c3cnn4-c3cccc(C(F)(F)F)c3)C2)CC1` [Example I-80, 1-(1-{6-[(1,1-dioxidotetrahydro-2H-thiopyran-4-yl)amino]-1-[3-(trifluoromethyl)phenyl]-1H-pyrazolo[3,4-d]pyrimidin-4-yl}azetidin-3-yl)-4-methylpiperidin-4-ol], the IC50 was 11.4 nM.
In the case of `CCS(=O)(=O)N1CC(Nc2nc(N3CC(N4CCOCC4)C3)c3cnn(-c4cccc(C(F)(F)F)c4)c3n2)C1` [Example I-81, N-[1-(ethylsulfonyl)azetidin-3-yl]-4-[3-(morpholin-4-yl)azetidin-1-yl]-1-[3-(trifluoromethyl)phenyl]-1H-pyrazolo[3,4-d]pyrimidin-6-amine] it was 83.2 nM; in that of `CCS(=O)(=O)[C@H]1C[C@H](Nc2nc(N3CC(N4CCOCC4)C3)c3cnn(-c4cccc(C(F)(F)F)c4)c3n2)C1` [Example I-82, N-[trans-3-(ethylsulfonyl)cyclobutyl]-4-[3-(morpholin-4-yl)azetidin-1-yl]-1-[3-(trifluoromethyl)phenyl]-1H-pyrazolo[3,4-d]pyrimidin-6-amine], 11.5 nM; in that of `CCS(=O)(=O)N1CC(Nc2nc(N3C[C@@H](O)[C@H](O)C3)c3cnn(-c4cccc(C(F)(F)F)c4)c3n2)C1` [Example I-84, (3R,4R)-1-(6-{[1-(ethylsulfonyl)azetidin-3-yl]amino}-1-[3-(trifluoromethyl)phenyl]-1H-pyrazolo[3,4-d]pyrimidin-4-yl)pyrrolidine-3,4-diol], 48.3 nM.
Then `CCS(=O)(=O)[C@H]1C[C@H](Nc2nc(N3C[C@@H](O)[C@H](F)C3)c3cnn(-c4cccc(C(F)(F)F)c4)c3n2)C1` [Example I-87, (3R,4R)-1-(6-{[(1r,3R)-3-(ethylsulfonyl)cyclobutyl]amino}-1-[3-(trifluoromethyl)phenyl]-1H-pyrazolo[3,4-d]pyrimidin-4-yl)-4-fluoropyrrolidin-3-ol], with 7.87 nM.
Consider `CC(C)(O)C1CCN(c2nc(N[C@H]3C[C@@](C)(O)C3)nc3c2cnn3-c2cccc(C(F)(F)F)c2)CC1` [Example I-90, cis-3-({4-[4-(2-hydroxypropan-2-yl)piperidin-1-yl]-1-[3-(trifluoromethyl)phenyl]-1H-pyrazolo[3,4-d]pyrimidin-6-yl}amino)-1-methylcyclobutanol], for which it took 24.7 nM to reach half-maximal inhibition (IC50).
Then `CS(=O)(=O)[C@H]1C[C@H](Nc2nc(N3CCC(O)CC3)c3cnn(-c4cccc(C(F)(F)F)c4)c3n2)C1` [Example I-93, 1-(6-{[trans-3-(methylsulfonyl)cyclobutyl]amino}-1-[3-(trifluoromethyl)phenyl]-1H-pyrazolo[3,4-d]pyrimidin-4-yl)piperidin-4-ol], with 11.2 nM.
With `CCS(=O)(=O)[C@H]1C[C@H](Nc2nc(N3C[C@H](O)[C@@H](F)C3)c3cnn(-c4cccc(C(F)(F)F)c4)c3n2)C1` [Example I-95, (3S,4S)-1-(6-{[(1r,3S)-3-(ethylsulfonyl)cyclobutyl]amino}-1-[3-(trifluoromethyl)phenyl]-1H-pyrazolo[3,4-d]pyrimidin-4-yl)-4-fluoropyrrolidin-3-ol], the IC50 turned out to be 25 nM.
In the case of `O[C@H]1CN(c2nc(N[C@H]3C[C@H](O)C3)nc3c2cnn3-c2cccc(C(F)(F)F)c2)C[C@@H]1F` [Example I-96, (3S,4S)-4-fluoro-1-(6-{[(1r,3S)-3-hydroxycyclobutyl]amino}-1-[3-(trifluoromethyl)-phenyl]-1H-pyrazolo[3,4-d]pyrimidin-4-yl)pyrrolidin-3-ol] it was 8.1 nM.

As usually defined, the IC50 is the concentration that inhibits the measured activity by half. A low value points to higher potency.
